Data reported in patent publication US11365177B2, “Chemical uncouplers of respiration and methods of use thereof” (Dana-Farber Cancer Institute, Inc., priority 2017, dated 2022).

What was measured:
[1] = Liver microsome stability assay; assay type: in vitro ADME; conditions: mouse liver microsomes 1 mg/mL, 1 μM compound, NADPH, pH 7.4, 37 C; FIG. 3
Description: The compounds were evaluated in a mouse liver microsome assay.
Microsome stability was evaluated by incubating 1 μM test compound with 1 mg/mL hepatic microsomes in 100 mM KPi, pH 7.4 at 37 C with shaking. The reaction was initiated by adding NADPH (1 mM final concentration). Aliquots were removed at 0, 5, 10, 20, 40, and 60 minutes and added to acetonitrile (5× v:v) to stop the reaction and precipitate the protein. NADPH dependence of the reaction was evaluated with -NADPH samples. At the end of the assay, the samples were centrifuged through a Millipore Multiscreen Solvinter 0.45 micron low binding PTFE hydrophilic filter plate and analyzed by LC-MS/MS. Data is log transformed and represented as half-life.

C2C12 cells = test: Measurement of cellular respiration (Seahorse), uncoupling bioactivity; assay type: cell-based; conditions: Mus musculus, Table 5, cyclic head groups, 50 μM compound, maximal increase versus basal oligomycin-treated respiration, means SEM, n=3-6/group, read-out: % stimulation of respiration (baseline = 100%)
Description: Oligomycin was purchased from EMD Millipore, and FCCP and rotenone were purchased from Sigma. C2C12 cells were seeded at 35,000 cells/well in an XF24 cell culture microplate (V7-PS, Seahorse Bioscience) and analyzed the following day. On the day of analysis, the cells were washed once with Seahorse respiration buffer (8.3 g/l DMEM, 1.8 g/l NaCl, 1 mM pyruvate, 20 mM glucose, pen/strep), placed in 0.5 ml Seahorse respiration buffer, and incubated in a CO2-free incubator for 1 h. Port injection solutions were prepared as follows (final concentrations in assay in parentheses): 10 μM oligomycin (1 μM final), 500 μM indicated compound (50 μM final), 2 μM FCCP (0.2 μM final), and 30 μM rotenone (3 μM final). The Seahorse program was run as follows: basal measurement, 3 cycles; inject port A (oligomycin), 3 cycles; inject port B (compounds), 8 cycles; inject port C (FCCP), 3 cycles; inject port D (rotenone), 3 cycles. Each cycle consisted of mix 2 min, wait 0 min, and measure 2 min. For data expressed as a percentage of oligomycin-treated basal, the respiration at cycle 6 was normalized to 100%, and the maximum respiration at any time point between cycles 7 and 15 inclusive was used.
Tables 1-4 show uncoupling bioactivity of compounds of the disclosure with different fatty acid side chains. Respiration in C2C12 cells is shown as maximal increases versus basal oligomycin-treated respiration, which is normalized to 100%. Data are shown as means SEM, n=3-6/group.

mPM20D1 = target: T1, mPM20D1 (Mus musculus, UniProt Q8C165); test: PM20D1 hydrolysis assay; assay type: in vitro ADME, murine; conditions: 10 nmol compound in 100 μl PBS, mPM20D1, 1 h at 37° C., LC-MS; FIG. 2
T1 construct: host or cells: 293T cells (secreted into serum-free conditioned media)
T1 sequence (Q8C165 25-503): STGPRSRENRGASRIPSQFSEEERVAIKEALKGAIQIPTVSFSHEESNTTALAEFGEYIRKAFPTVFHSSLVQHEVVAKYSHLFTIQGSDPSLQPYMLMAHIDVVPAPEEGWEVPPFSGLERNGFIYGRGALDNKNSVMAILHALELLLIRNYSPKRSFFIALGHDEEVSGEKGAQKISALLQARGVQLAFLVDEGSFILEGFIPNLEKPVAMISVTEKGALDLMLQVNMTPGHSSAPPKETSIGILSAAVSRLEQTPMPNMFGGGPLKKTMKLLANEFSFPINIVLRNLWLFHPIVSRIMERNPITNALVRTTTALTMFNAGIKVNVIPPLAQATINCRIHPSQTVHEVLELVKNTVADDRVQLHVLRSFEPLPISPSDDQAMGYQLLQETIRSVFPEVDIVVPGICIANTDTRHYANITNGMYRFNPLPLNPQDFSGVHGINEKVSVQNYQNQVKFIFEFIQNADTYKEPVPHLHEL
Description: Three 10 cm plates of 293T cells were transiently transfected with murine PM20D1-6×His-Flag plasmid (Addgene plasmid #84566) using PolyFect according to the manufacturer's instructions. After 48 h, cells were washed twice in PBS and switched to serum free DMEM with penicillin and streptomycin. Serum free conditioned media was collected 24 h later and concentrated ˜10-fold in 30 kDa MWCO filters (EMD Millipore) according to the manufacturer's instructions. The concentrated media was centrifuged to remove debris (600×g, 10 min, 4° C.) and the supernatant containing PM20D1-flag was decanted into a new tube. PM20D1-flag was immunoaffinity purified overnight at 4° C. from the concentrated media using magnetic Flag-M2 beads (Sigma Aldrich). The beads were collected, washed three times in PBS, eluted with 3× Flag peptide ([…] in PBS, Sigma Aldrich), aliquoted, and stored at −80° C.
10 nmol of the indicated compound was incubated in 100 μl PBS (100 VM initial substrate). Reactions were initiated by the addition of PBS or mPM20D1 (5 μl). After 1 h at 37° C., reactions were quenched with […] of a 2:1 v/v mixture of chloroform and methanol with 10 nmol d31-palmitate as an internal standard. The reactions were vortexed and the organic layer was transferred to a sample vial for analysis by LC-MS. For separation of polar metabolites, normal-phase chromatography was performed with a Luna-[…] NH2 column (50 mm×4.60 mm, Phenomenex). Mobile phases were as follows: Buffer A, acetonitrile; Buffer B, 95:5 water/acetonitrile with 0.1% formic acid or 0.2% ammonium hydroxide with 50 mM ammonium acetate for positive and negative ionization mode, respectively. The flow rate for each run started at 0.2 ml/min for 2 min, followed by a gradient starting at 0% B and increasing linearly to 100% B over the course of 15 min with a flow rate of 0.7 ml/min, followed by an isocratic gradient of 100% B for 10 min at 0.7 ml/min before equilibrating for 5 min at 0% B with a flow rate of 0.7 ml/min. MS analysis was performed with an electrospray ionization (ESI) source on an Agilent 6430 QQQ LC-MS/MS. The capillary voltage was set to 3.5 kV, and the fragmentor voltage was set to 100 V. The drying gas temperature was 325° C., the drying gas flow rate was 10 l/min, and the nebulizer pressure was 45 psi. Monitoring of hydrolysis starting materials and products was performed by scanning a mass range of m/z 50-1200. Peaks corresponding to the liberated fatty acids (products) or the intact starting material was integrated.

[2] = Plasma concentration after compound administration in DIO mice; assay type: in vivo; conditions: 10 mg/kg, 1 hour after administration, FIG. 5
Description: DIO mice (19 weeks, males, stock #380050) were purchased from The Jackson Laboratory. Prior to compound administration, mice were mock injected with vehicle (18:1:1 v/v/v saline:DMSO:Kolliphor EL) for 4 days. Compounds 33 and 37 were prepared in the same vehicle and administered at 10 mg/kg doses. Plasma concentration was measured 1 hour after compound administration.

DIO mice = test: Treatment of DIO mice with compound: body weight and food intake; assay type: in vivo
Description: DIO mice (19 weeks, males, stock #380050) were purchased from The Jackson Laboratory. Mice were maintained on a high fat diet for the duration of the experiment (60% fat, Research Diets). Prior to compound administration, mice were mock injected with vehicle (18:1:1 v/v/v saline:DMSO:Kolliphor EL, intraperitoneal) for 4 days. Compound 33 was prepared in the same vehicle and administered at 5 μl/g body weight at the indicated doses. Administration of vehicle of compound occurred once per day. Data shown in FIG. 4A compared changes in body weights of representative mice at day 7 versus initial weight on day 0. Data shown in FIG. 4B represented average food intake per mouse over the 7 day dosing period for each treatment group.

SMILES	microsome stability (in vitro half-life) [1]	activity at 50 µM (C2C12 cells)	hydrolysis by PM20D1 (mPM20D1)	pharmacokinetic properties in vivo (plasma concentration) [2]	uncoupling bioactivity in vivo (DIO mice; DIO mice on high fat diet, intraperitoneal, once per day)	average food consumed per mouse per day (DIO mice; DIO mice, different treatment groups, 7 day dosing period, FIG. 4B)	change in body weight from the initial weight (DIO mice; DIO mice, higher doses, once per day, day 7 versus day 0, FIG. 4A)
CCCCCCCC/C=C\CCCCCCCC(=O)N1Cc2ccccc2[C@H]1C(=O)O [Compound 33, (S)-2-Oleoylisoindoline-1-carboxylic acid]	long in vitro half-lives	240 ± 24%	entirely resistant to hydrolysis by PM20D1	augmented pharmacokinetic properties in vivo	possesses uncoupling bioactivity in vivo	consumed the same amount of food per mouse per day	statistically significant weight loss over time
CCCCCCCC/C=C\CCCCCCCC(=O)N1Cc2ccccc2[C@@H]1C(=O)O [Compound 34, (R)-2-Oleoylisoindoline-1-carboxylic acid]	long in vitro half-lives	190 ± 12%	entirely resistant to hydrolysis by PM20D1				
CCCCC/C=C\C/C=C\CCCCCCCC(=O)N1Cc2ccccc2[C@H]1C(=O)O [Compound 36, (S)-2-((9Z,12Z)-Octadeca-9,12-dienoyl)isoindoline-1-carboxylic acid]	long in vitro half-lives	185 ± 18%	entirely resistant to hydrolysis by PM20D1				
CCCCC/C=C\C/C=C\CCCCCCCC(=O)N1Cc2ccccc2[C@@H]1C(=O)O [Compound 37, (R)-2-((9Z,12Z)-Octadeca-9,12-dienoyl)isoindoline-1-carboxylic acid]	long in vitro half-lives	190 ± 12%	entirely resistant to hydrolysis by PM20D1	augmented pharmacokinetic properties in vivo			
